Test results from patent US12729377B2, “RNAi agents and compositions for inhibiting expression of angiopoietin-like 3 (ANGPTL3), and methods of use” (Arrowhead Pharmaceuticals, Inc., priority 2017, dated 2026).
In the oligonucleotide strings, read from the 5' end, every base follows the letter of its sugar. An asterisk marks phosphorothioate; unmarked linkages are phosphodiester. Other units and linkages are bracketed, terminal groups are in braces. A string of capitals states the bases alone. {NAG37} = tridentate N-acetyl-galactosamine targeting ligand, structure (NAG37)s; [invAb] = inverted abasic unit; m = 2'-O-methyl; f = 2'-fluoro

Key:
ANGPTL3 gene [1] = experiment: Example 6: serum total cholesterol in mice; format: in vivo, C57bl/6 mice
Description: (§1) To assess the in vivo activity of additional ANGPTL3 RNAi agents that are designed to target position 304 on the ANGPTL3 gene, six- to eight-week-old female C57bl/6 mice were used. Pre-dose serum samples were taken at day −1 after a four hour fast. At day 1, each mouse was given a single subcutaneous administration of 200 μl containing 0.5 mg/kg (mpk) of an ANGPTL3 RNAi agent in D5W (dextrose in 5% water), or control (D5W) with no RNAi agent, according to the dosing groups recited in Table 25.
(§2) Each of the RNAi agents included a modified sequence and an N-acetyl-galactosamine-containing targeting ligand conjugated to the 5′ terminal end of the sense strand. (See Tables 3, 4, and 5 for modified sequences and targeting ligand structures). The injections were performed between the skin and muscle (i.e. subcutaneous injections) into the loose skin over the neck and shoulder area. Three (3) mice in each group were tested (n=3). Serum was collected on days 8, 15, 22, 30, and on day 43 for certain groups (i.e., Groups 1, 2, 5, and 10 only). Mice were fasted for four hours prior to each collection. ANGPTL3 protein levels in serum were measured by ELISA assay (R&D Systems), according to the manufacturer's recommendations. Triglycerides, total cholesterol, high-density lipoprotein (HDL), and low-density lipoprotein (LDL) in serum were measured on a Cobas® Integra 400 (Roche Diagnostics), according to the manufacturer's recommendations.
(§3) The ANGPTL3 protein levels, triglyceride levels, total cholesterol levels, HDL levels, and LDL levels for each animal were normalized. For normalization, the level of ANGPTL3 protein, triglyceride, HDL, and total cholesterol, respectively, for each animal at a time point, was divided by the pre-treatment level of expression in that animal (in this case at day −1) to determine the ratio of expression “normalized to pre-treatment.” Expression at a specific time point was then normalized to the D5W control group by dividing the “normalized to pre-treatment” ratio for an individual animal by the mean “normalized to pretreatment” ratio of all mice in the D5W control group.

ANGPTL3 gene [2] = experiment: Example 10: serum HDL in mice; format: in vivo; conditions: 0.5 mg/kg single SC injection day 1, female C57bl/6 mice, n=3, ratio to D5W control
Description: as §1, with “further” for “additional”, “47.” for “25.”
Each of the RNAi agents included a modified sequence and an N-acetyl-galactosamine-containing targeting ligand conjugated to the 5′ terminal end of the sense strand. (See Tables 3, 4, and 5 for modified sequences and targeting ligand structures). As noted above, each of the ANGPTL3 RNAi agents dosed in this study included nucleotide sequences designed to target the ANGPTL3 gene at position 304. The injections were performed between the skin and muscle (i.e. subcutaneous injections) into the loose skin over the neck and shoulder area. Three (3) mice in each group were tested (n=3). Serum was collected on days 8, 15, 22, 29, and for some groups on day 36 (i.e., Groups 1, 2, and 9-13 only). Mice were fasted for four hours prior to each collection. ANGPTL3 protein levels in serum were measured by ELISA assay (R&D Systems), according to the manufacturer's recommendations. Triglycerides, total cholesterol, high-density lipoprotein (HDL), and low-density lipoprotein (LDL) in serum were measured on a Cobas® Integra 400 (Roche Diagnostics), according to the manufacturer's recommendations.
as §3

ANGPTL3 gene [3] = experiment: Example 11: dose response, serum triglycerides in mice; format: in vivo, C57bl/6 mice
Description: as §1, with “dose response” for “in vivo activity”, “of” for “of additional”, “agent AD05488,” for “agents that are designed to target position 304 on the ANGPTL3 gene,”, “the respective” for “0.5”, “dose” for “(mpk)”, “53:” for “25.”
as §2, with “The” for “Each of the”, “agent tested (AD05488)” for “agents”, “Four (4)” for “Three (3)”, “(n=4).” for “(n=3).”, “22,” for “22, 30,”, “29.” for “on day 43 for certain groups (i.e., Groups 1, 2, 5, and 10 only).”
as §3

## AD05488: RNAi agent duplex: antisense AM07235-AS, sense AM07234-SS (antisense mU*fA*mC*fUmGfAmUfCmAfAmAfUmAfUmGfUmUfGmAfG*mC; sense {NAG37}*[invAb]*mGmCmUmCmAmAmCmAfUfAfUmUmUmGmAmUmCmAmGmUmA*[invAb])
ANGPTL3 gene [1]; Day 8, 0.5 mg/kg single SC injection on day 1, n=3
  Avg Chol (total cholesterol), normalized to pre-treatment and control: 0.782
ANGPTL3 gene [1]; Day 15, 0.5 mg/kg single SC injection on day 1, n=3
  Avg Chol (total cholesterol), normalized to pre-treatment and control: 0.768
ANGPTL3 gene [1]; Day 22, 0.5 mg/kg single SC injection on day 1, n=3
  Avg Chol (total cholesterol), normalized to pre-treatment and control: 0.801
ANGPTL3 gene [1]; Day 30, 0.5 mg/kg single SC injection on day 1, n=3
  Avg Chol (total cholesterol), normalized to pre-treatment and control: 0.961
ANGPTL3 gene [1]; Day 43, 0.5 mg/kg single SC injection on day 1, n=3
  Avg Chol (total cholesterol), normalized to pre-treatment and control: 1.037
ANGPTL3 gene [2]; Day 8
  Average HDL Normalized to Pre-Treatment and Control: 0.648
ANGPTL3 gene [2]; Day 15
  Average HDL Normalized to Pre-Treatment and Control: 0.807
ANGPTL3 gene [2]; Day 22
  Average HDL Normalized to Pre-Treatment and Control: 0.733
ANGPTL3 gene [2]; Day 29
  Average HDL Normalized to Pre-Treatment and Control: 0.746
ANGPTL3 gene [2]; Day 36
  Average HDL Normalized to Pre-Treatment and Control: 0.816
ANGPTL3 gene [3]; 0.05 mg/kg single sc day 1, Day 8
  Avg TG (Triglycerides) Normalized to Pre-Treatment and Control: 1.296
ANGPTL3 gene [3]; 0.05 mg/kg single sc day 1, Day 15
  Avg TG (Triglycerides) Normalized to Pre-Treatment and Control: 1.274
ANGPTL3 gene [3]; 0.05 mg/kg single sc day 1, Day 22
  Avg TG (Triglycerides) Normalized to Pre-Treatment and Control: 1.202
ANGPTL3 gene [3]; 0.05 mg/kg single sc day 1, Day 29
  Avg TG (Triglycerides) Normalized to Pre-Treatment and Control: 1.999
ANGPTL3 gene [3]; 0.1 mg/kg single sc day 1, Day 8
  Avg TG (Triglycerides) Normalized to Pre-Treatment and Control: 1.116
ANGPTL3 gene [3]; 0.1 mg/kg single sc day 1, Day 15
  Avg TG (Triglycerides) Normalized to Pre-Treatment and Control: 1.141
ANGPTL3 gene [3]; 0.1 mg/kg single sc day 1, Day 22
  Avg TG (Triglycerides) Normalized to Pre-Treatment and Control: 1.234
ANGPTL3 gene [3]; 0.1 mg/kg single sc day 1, Day 29
  Avg TG (Triglycerides) Normalized to Pre-Treatment and Control: 1.798
ANGPTL3 gene [3]; 0.5 mg/kg single sc day 1, Day 8
  Avg TG (Triglycerides) Normalized to Pre-Treatment and Control: 1.028
ANGPTL3 gene [3]; 0.5 mg/kg single sc day 1, Day 15
  Avg TG (Triglycerides) Normalized to Pre-Treatment and Control: 1.027
ANGPTL3 gene [3]; 0.5 mg/kg single sc day 1, Day 22
  Avg TG (Triglycerides) Normalized to Pre-Treatment and Control: 0.864
ANGPTL3 gene [3]; 0.5 mg/kg single sc day 1, Day 29
  Avg TG (Triglycerides) Normalized to Pre-Treatment and Control: 1.855
ANGPTL3 gene [3]; 1.0 mg/kg single sc day 1, Day 8
  Avg TG (Triglycerides) Normalized to Pre-Treatment and Control: 0.860
ANGPTL3 gene [3]; 1.0 mg/kg single sc day 1, Day 15
  Avg TG (Triglycerides) Normalized to Pre-Treatment and Control: 0.755
ANGPTL3 gene [3]; 1.0 mg/kg single sc day 1, Day 22
  Avg TG (Triglycerides) Normalized to Pre-Treatment and Control: 0.720
ANGPTL3 gene [3]; 1.0 mg/kg single sc day 1, Day 29
  Avg TG (Triglycerides) Normalized to Pre-Treatment and Control: 1.254
ANGPTL3 gene [3]; 2.5 mg/kg single sc day 1, Day 8
  Avg TG (Triglycerides) Normalized to Pre-Treatment and Control: 0.623
ANGPTL3 gene [3]; 2.5 mg/kg single sc day 1, Day 15
  Avg TG (Triglycerides) Normalized to Pre-Treatment and Control: 0.556
ANGPTL3 gene [3]; 2.5 mg/kg single sc day 1, Day 22
  Avg TG (Triglycerides) Normalized to Pre-Treatment and Control: 0.447
ANGPTL3 gene [3]; 2.5 mg/kg single sc day 1, Day 29
  Avg TG (Triglycerides) Normalized to Pre-Treatment and Control: 0.772
ANGPTL3 gene [3]; 5.0 mg/kg single sc day 1, Day 8
  Avg TG (Triglycerides) Normalized to Pre-Treatment and Control: 0.923
ANGPTL3 gene [3]; 5.0 mg/kg single sc day 1, Day 15
  Avg TG (Triglycerides) Normalized to Pre-Treatment and Control: 0.892
ANGPTL3 gene [3]; 5.0 mg/kg single sc day 1, Day 22
  Avg TG (Triglycerides) Normalized to Pre-Treatment and Control: 0.781
ANGPTL3 gene [3]; 5.0 mg/kg single sc day 1, Day 29
  Avg TG (Triglycerides) Normalized to Pre-Treatment and Control: 1.128
